{"source": "PubChem BioAssay (NCI)", "assay_in_all_cases": "NCI-60 cell line screen, 48 h", "key": {"HCT-116 colon": {"tested_on": "HCT-116 colon"}, "DMS 273 small cell lung": {"tested_on": "DMS 273 small cell lung"}, "RPMI-8226 leukemia": {"tested_on": "RPMI-8226 leukemia"}, "ACHN renal": {"tested_on": "ACHN renal"}, "COLO 205 colon": {"tested_on": "COLO 205 colon"}, "HCC-2998 colon": {"tested_on": "HCC-2998 colon"}, "SW-620 colon": {"tested_on": "SW-620 colon"}, "SK-OV-3 ovarian": {"tested_on": "SK-OV-3 ovarian"}, "SN12C renal": {"tested_on": "SN12C renal"}, "HL-60(TB) leukemia": {"tested_on": "HL-60(TB) leukemia"}, "SNB-75 CNS": {"tested_on": "SNB-75 CNS"}, "HT29 colon": {"tested_on": "HT29 colon"}, "UO-31 renal": {"tested_on": "UO-31 renal"}, "M14 melanoma": {"tested_on": "M14 melanoma"}, "NCI-H23 lung": {"tested_on": "NCI-H23 lung"}, "M19-MEL melanoma": {"tested_on": "M19-MEL melanoma"}, "RXF 393 renal": {"tested_on": "RXF 393 renal"}, "K-562 leukemia": {"tested_on": "K-562 leukemia"}, "NCI-H226 lung": {"tested_on": "NCI-H226 lung"}, "SK-MEL-28 melanoma": {"tested_on": "SK-MEL-28 melanoma"}}, "note": "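1) Cells in 96-well plates. 2) Compound, 48 h, 5 concentrations. 3) Linear interpolation between surrounding doses. 4) Unreached endpoint = highest concentration. Definition used: TGI = concentration required for complete inhibition of growth.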"}
{"smiles": "CCN(CC)CCCNC(=O)c1ccccc1Nc1c(Cl)cccc1Cl", "values": [{"measurement": "TGI", "setting": "HCT-116 colon", "result": 23.6, "unit": "µM"}, {"measurement": "TGI", "setting": "DMS 273 small cell lung", "result": 31.1, "unit": "µM"}, {"measurement": "TGI", "setting": "RPMI-8226 leukemia", "result": 20.5, "unit": "µM"}, {"measurement": "TGI", "setting": "ACHN renal", "result": 21.8, "unit": "µM"}, {"measurement": "TGI", "setting": "COLO 205 colon", "result": 28, "unit": "µM"}, {"measurement": "TGI", "setting": "HCC-2998 colon", "result": 21.3, "unit": "µM"}, {"measurement": "TGI", "setting": "SW-620 colon", "result": 30.1, "unit": "µM"}, {"measurement": "TGI", "setting": "SK-OV-3 ovarian", "result": 27.7, "unit": "µM"}, {"measurement": "TGI", "setting": "SN12C renal", "result": 27.2, "unit": "µM"}, {"measurement": "TGI", "setting": "HL-60(TB) leukemia", "result": 12.5, "unit": "µM"}, {"measurement": "TGI", "setting": "SNB-75 CNS", "result": 15.4, "unit": "µM"}, {"measurement": "TGI", "setting": "HT29 colon", "result": 16.5, "unit": "µM"}, {"measurement": "TGI", "setting": "UO-31 renal", "result": 20.3, "unit": "µM"}, {"measurement": "TGI", "setting": "M14 melanoma", "result": 7.86, "unit": "µM"}, {"measurement": "TGI", "setting": "NCI-H23 lung", "result": 30.9, "unit": "µM"}, {"measurement": "TGI", "setting": "M19-MEL melanoma", "result": 11, "unit": "µM"}, {"measurement": "TGI", "setting": "RXF 393 renal", "result": 23, "unit": "µM"}, {"measurement": "TGI", "setting": "K-562 leukemia", "result": 23, "unit": "µM"}, {"measurement": "TGI", "setting": "NCI-H226 lung", "result": 28.6, "unit": "µM"}, {"measurement": "TGI", "setting": "SK-MEL-28 melanoma", "result": 9.51, "unit": "µM"}]}
